# System: basal ERK1/2 phosphorylation in Malme-3M cells
# Assay: Cellular ERK 1/2 phosphorylation assay
# Type: cell-based
# Details: Homo sapiens, 1 hour incubation, pERK normalized to total ERK, representative data of multiple tests
# Method: Inhibition of basal ERK1/2 phosphorylation was determined by the following in vitro […], which comprises incubating cells with a compound of Formula I for 1 hour and quantifying the fluorescent pERK signal on fixed cells and normalizing to total ERK signal.
# Materials and Methods: Malme-3M cells were obtained from ATCC and grown in RPMI-1640 supplemented with 10% fetal bovine serum. Cells were plated in 96-well plates at 24,000 cells/well and allowed to attach for 16-20 hours at 37° C., 5% CO2. The media was removed, and DMSO-diluted compounds were added in RPMI-1640 at a final concentration of 1% DMSO. The cells were incubated with the compounds for 1 hour at 37° C., 5% CO2. The cells were washed with PBS and fixed in 3.7% formaldehyde in PBS for 15 minutes. This was followed by washing in PBS/0.05% Tween20 and permeabilizing in −20° C. 100% MeOH for 15 minutes. Cells were washed in PBS/0.05% Tween20 then blocked in Odyssey blocking buffer (LI-COR Biosciences) for 1 hour. Antibodies to phosphorylated ERK (1:400, Cell Signaling #9106, monoclonal) and total ERK (1:400, Santa Cruz Biotechnology #sc-94, polyclonal) were added to the cells and incubated 16-20 hours at 4° C. After washing with PBS/0.05% Tween20, the cells were incubated with fluorescently-labeled secondary antibodies (1:1000 goat anti-rabbit IgG-IRDye800, Rockland and 1:500 goat anti-mouse IgG-Alexa Fluor 680, Molecular Probes) for an additional hour. Cells were then washed and analyzed for fluorescence at both wavelengths using the Odyssey Infrared Imaging System (LI-COR Biosciences). Phosphorylated ERK signal was normalized to total ERK signal.
row,Compound,IC50 [nM]
1,"CCCS(=O)(=O)Nc1ccc(F)c(C(=O)Nc2cnc3cc(-c4ccccc4)nn3c2)c1F [Example 5, 2,6-difluoro-N-(2-phenylpyrazolo[1,5-a]pyrimidin-6-yl)-3-(propylsulfonamido)benzamide]",13.9

# Target: T1, V600E full-length B-Raf (Homo sapiens, UniProt P15056, V600E)
# T1 construct: made in house; host or cells: Sf9 insect cells (baculovirus)
# T1 sequence (P15056 whole entry V600E): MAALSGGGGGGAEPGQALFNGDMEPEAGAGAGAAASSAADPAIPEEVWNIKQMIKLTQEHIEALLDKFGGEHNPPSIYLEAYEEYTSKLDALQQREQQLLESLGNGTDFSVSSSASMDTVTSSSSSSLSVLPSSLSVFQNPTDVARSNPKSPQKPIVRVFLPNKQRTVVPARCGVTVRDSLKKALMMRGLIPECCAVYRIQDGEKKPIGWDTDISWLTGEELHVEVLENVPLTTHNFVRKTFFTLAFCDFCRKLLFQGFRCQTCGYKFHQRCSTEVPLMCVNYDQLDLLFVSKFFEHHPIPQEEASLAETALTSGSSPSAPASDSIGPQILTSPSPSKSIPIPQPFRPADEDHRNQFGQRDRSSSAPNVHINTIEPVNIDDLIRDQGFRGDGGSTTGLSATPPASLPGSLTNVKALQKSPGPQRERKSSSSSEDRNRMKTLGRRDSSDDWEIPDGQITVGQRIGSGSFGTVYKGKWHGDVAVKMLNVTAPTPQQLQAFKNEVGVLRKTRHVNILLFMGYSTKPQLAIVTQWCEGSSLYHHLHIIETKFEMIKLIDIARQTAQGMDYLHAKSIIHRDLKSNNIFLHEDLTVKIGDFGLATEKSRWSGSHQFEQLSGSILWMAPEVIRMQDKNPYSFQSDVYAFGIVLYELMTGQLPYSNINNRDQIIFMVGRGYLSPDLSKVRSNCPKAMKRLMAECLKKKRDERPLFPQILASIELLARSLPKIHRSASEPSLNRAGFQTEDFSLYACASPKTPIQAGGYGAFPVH
# Assay: B-Raf IC50 assay (incorporation of radiolabeled phosphate from [γ-33P]ATP into FSBA-modified wild-type MEK)
# Type: biochemical
# Details: bound stated
# Text: Determining the activity of Raf in the sample is possible by a number of direct and indirect detection methods (US 2004/0082014). Activity of human recombinant B-Raf protein may be assessed in vitro by assay of the incorporation of radio labeled phosphate to recombinant MAP kinase (MEK), a known physiologic substrate of B-Raf, according to US 2004/0127496 and WO 03/022840.
# Activity of human recombinant B-Raf protein may be assessed in vitro by assay of the incorporation of radio labeled phosphate to recombinant MAP kinase (MEK), a known physiologic substrate of B-Raf, according to US 2004/0127496 and WO 03/022840. Catalytically active human recombinant B-Raf protein is obtained by purification from sf9 insect cells infected with a human B-Raf recombinant baculovirus expression vector.
# Incubations were carried out at 22° C. in a Costar 3365 plate (Corning). Prior to the assay, the B-Raf and FSBA-MEK were preincubated together in assay buffer at 1.5× (20 μL of 30 nM and 1.5 μM, respectively) for 15 minutes, and the assay was initiated by the addition of 10 μL of 10 μM ATP. Following the 60-minute incubation, the assay mixtures were quenched by the addition of 100 μL of 25% TCA, the plate was mixed on a rotary shaker for 1 minute, and the product was captured on a Perkin-Elmer GF/B filter plate using a Tomtec Mach III Harvester. After sealing the bottom of the plate, […] of Bio-Safe II (Research Products International) scintillation cocktail were added to each well and the plate was top-sealed and counted in a Topcount NXT (Packard).
row,Compound,IC50 [nM]
1,"CCCS(=O)(=O)Nc1ccc(F)c(C(=O)Nc2cnc3ccnn3c2)c1F [Example 27, 2,6-difluoro-3-(propylsulfonamido)-N-(pyrazolo[1,5-a]pyrimidin-6-yl)benzamide]",< 300
2,"CCCS(=O)(=O)Nc1ccc(F)c(C(=O)Nc2cnc3cc(CC)nn3c2)c1F [Example 29, N-(2-ethylpyrazolo[1,5-a]pyrimidin-6-yl)-2,6-difluoro-3-(propylsulfonamido) benzamide]",< 150
3,"CCCS(=O)(=O)Nc1ccc(F)c(C(=O)Nc2cnc3cc(SC)nn3c2)c1F [Example 14, 2,6-difluoro-N-(2-(methylthio)pyrazolo[1,5-a]pyrimidin-6-yl)-3-(propylsulfonamido)benzamide]",< 150
4,"CCCS(=O)(=O)Nc1ccc(F)c(C(=O)Nc2cnc3cc(-c4cccc(F)c4)nn3c2)c1F [Example 9, 2,6-difluoro-N-(2-(3-fluorophenyl)pyrazolo[1,5-a]pyrimidin-6-yl)-3-(propylsulfonamido)benzamide]",< 150
5,"CCCS(=O)(=O)Nc1ccc(F)c(C(=O)Nc2cnc3cc(-c4ccc(C)cc4)nn3c2)c1F [Example 8, 2,6-difluoro-3-(propylsulfonamido)-N-(2-p-tolylpyrazolo[1,5-a]pyrimidin-6-yl)benzamide]",< 150
6,"CCCS(=O)(=O)Nc1ccc(F)c(C(=O)Nc2cnc3cc(OCCOC)nn3c2)c1F [Example 16, 2,6-difluoro-N-(2-(2-methoxyethoxy)pyrazolo[1,5-a]pyrimidin-6-yl)-3-(propylsulfonamido)benzamide]",< 150
7,"CCCS(=O)(=O)Nc1ccc(F)c(C(=O)Nc2cnc3cc(OCCO)nn3c2)c1F [Example 15, 2,6-difluoro-N-(2-(2-hydroxyethoxy)pyrazolo[1,5-a]pyrimidin-6-yl)-3-(propylsulfonamido)benzamide]",< 150
8,"CCCS(=O)(=O)Nc1ccc(F)c(C(=O)Nc2cnc3cc(C4CCOC4)nn3c2)c1F (stereo not shown) [Example 31, 2,6-difluoro-3-(propylsulfonamido)-N-(2-(tetrahydrofuran-3-yl)pyrazolo[1,5-a]pyrimidin-6-yl)benzamide]",< 300
9,"CCCS(=O)(=O)Nc1ccc(F)c(C(=O)Nc2cnc3cc(NC)nn3c2)c1F [Example 35, 2,6-difluoro-N-(2-(methylamino)pyrazolo[1,5-a]pyrimidin-6-yl)-3-(propylsulfonamido) benzamide]",< 150
10,"CCCS(=O)(=O)Nc1ccc(F)c(C(=O)Nc2cnc3cc(-c4ccc(Cl)cc4)nn3c2)c1F [Example 6, N-(2-(4-chlorophenyl)pyrazolo[1,5-a]pyrimidin-6-yl)-2,6-difluoro-3-(propylsulfonamido)benzamide]",< 150
11,"CCCS(=O)(=O)Nc1ccc(Cl)c(C(=O)Nc2cnc3cc(-c4ccccc4)nn3c2)c1F [Example 33, 6-chloro-2-fluoro-N-(2-phenylpyrazolo [1,5-a]pyrimidin-6-yl)-3-(propylsulfonamido) benzamide]",< 150
12,"CCCS(=O)(=O)Nc1ccc(F)c(C(=O)Nc2cnc3cc(-c4cnn(C)c4)nn3c2)c1F [Example 12, 2,6-difluoro-N-(2-(1-methyl-1H-pyrazol-4-yl)pyrazolo[1,5-a]pyrimidin-6-yl)-3-(propylsulfonamido)benzamide]",< 150
13,"CCCS(=O)(=O)Nc1ccc(F)c(C(=O)Nc2cnc3cc(C4CCCC4)nn3c2)c1F [Example 30, N-(2-cyclopentylpyrazolo [1,5-a]pyrimidin-6-yl)-2,6-difluoro-3-(propylsulfonamido) benzamide]",< 150
14,"CCCS(=O)(=O)Nc1ccc(F)c(C(=O)Nc2cnc3cc(OC)nn3c2)c1Cl [Example 20, 2-chloro-6-fluoro-N-(2-methoxypyrazolo [1,5-a]pyrimidin-6-yl)-3-(propylsulfonamido) benzamide]",< 150
15,"CCCS(=O)(=O)Nc1ccc(F)c(C(=O)Nc2cnc3cc(N4CCOCC4)nn3c2)c1F [Example 36, 2,6-difluoro-N-(2-morpholinopyrazolo [1,5-a]pyrimidin-6-yl)-3-(propylsulfonamido) benzamide]",< 300
16,"COc1cc2ncc(NC(=O)c3c(F)ccc(NS(=O)(=O)CCCF)c3F)cn2n1 [Example 21, 2,6-difluoro-3-(3-fluoropropyl-sulfonamido)-N-(2-methoxypyrazolo [1,5-a]pyrimidin-6-yl)benzamide]",< 150
17,"COc1cc2ncc(NC(=O)c3c(F)ccc(NS(=O)(=O)CC(C)C)c3F)cn2n1 [Example 25, 2,6-difluoro-N-(2-methoxypyrazolo [1,5-a]pyrimidin-6-yl)-3-(2-methylpropyl-sulfonamido) benzamide]",< 150

# Results, then the molecule that gave them:
row,IC50 [nM],Compound
1,< 150,"CCCS(=O)(=O)Nc1ccc(F)c(C(=O)Nc2cnc3cc(-c4cnn(CCO)c4)nn3c2)c1F [Example 13, 2,6-difluoro-N-(2-(1-(2-hydroxyethyl)-1H-pyrazol-4-yl)pyrazolo[1,5-a]pyrimidin-6-yl)-3-(propylsulfonamido)benzamide]"
2,< 300,"CCCS(=O)(=O)Nc1ccc(F)c(C(=O)Nc2cnc3cc(NC(C)C)nn3c2)c1F [Example 18, 2,6-difluoro-N-(2-(isopropylamino)pyrazolo[1,5-a]pyrimidin-6-yl)-3-(propylsulfonamido)benzamide]"
3,< 300,"CCCS(=O)(=O)Nc1ccc(F)c(C(=O)Nc2cnc3cc(C4CCNCC4)nn3c2)c1F [Example 4, 2,6-difluoro-N-(2-(piperidin-4-yl)pyrazolo[1,5-a]pyrimidin-6-yl)-3-(propylsulfonamido)benzamide]"
4,< 150,"CCCS(=O)(=O)Nc1ccc(F)c(C(=O)Nc2cnc3cc(C4CC4)nn3c2)c1F [Example 28, N-(2-cyclopropylpyrazolo [1,5-a]pyrimidin-6-yl)-2,6-difluoro-3-(propylsulfonamido) benzamide]"
5,< 150,"CCCS(=O)(=O)Nc1ccc(F)c(C(=O)Nc2cnc3cc(-c4ccc(F)cc4)nn3c2)c1F [Example 7, 2,6-difluoro-N-(2-(4-fluorophenyl)pyrazolo[1,5-a]pyrimidin-6-yl)-3-(propylsulfonamido)benzamide]"
6,< 150,"CCCS(=O)(=O)Nc1ccc(F)c(C(=O)Nc2cnc3cc(C)nn3c2)c1F [Example 26, 2,6-difluoro-N-(2-methylpyrazolo [1,5-a]pyrimidin-6-yl)-3-(propylsulfonamido) benzamide]"
7,< 150,"CCCS(=O)(=O)Nc1ccc(F)c(C(=O)Nc2cnc3cc(OCC)nn3c2)c1F [Example 3, N-(2-ethoxypyrazolo[1,5-a]pyrimidin-6-yl)-2,6-difluoro-3-(propylsulfonamido)benzamide]"
8,< 150,"CCCS(=O)(=O)Nc1ccc(F)c(C(=O)Nc2cnc3cc(C(F)(F)F)nn3c2)c1F [Example 32, 2,6-difluoro-3-(propylsulfonamido)-N-(2-(trifluoromethyl)pyrazolo[1,5-a]pyrimidin-6-yl)benzamide]"
9,< 150,"CCCS(=O)(=O)Nc1ccc(Cl)c(C(=O)Nc2cnc3cc(OC)nn3c2)c1F [Example 19, 6-chloro-2-fluoro-N-(2-methoxypyrazolo [1,5-a]pyrimidin-6-yl)-3-(propylsulfonamido) benzamide]"
10,< 150,"CCCS(=O)(=O)Nc1ccc(F)c(C(=O)Nc2cnc3cc(OC(C)C)nn3c2)c1F [Example 2, 2,6-difluoro-N-(2-isopropoxypyrazolo[1,5-a]pyrimidin-6-yl)-3-(propylsulfonamido)benzamide]"
